From US8030354B2, “Substituted biphenyl GPR40 modulators” (Amgen Inc., priority 2007, dated 2011)

Assays:
GPR40 [1] = target: T1, GPR40 (Homo sapiens, UniProt O14842); assay: Cell-based aequorin assay (CHO cells stably expressing GPR40 and aequorin); parameters: expressed in transfected cells; host or cells: CHO cells stably transfected with GPR40 and aequorin; conditions: activation of human GPR40, CHO cells, 0.01% HSA
How it was run: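 CHO cells stably co-expressing GPR40 and aequorin, loaded with coelenterazine (1 ug/mL, 2 h, room temperature) in H/HBSS with 20 mM Hepes and 0.01% fatty acid-free HSA. Serially diluted compounds added; luminescence recorded over 20 s. EC50 from dose-response of maximum relative light units.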

GPR40 [2] = target: T1, GPR40; assay: Inositol phosphate accumulation assay (A9_GPR40 cells); assay type: cell-based; parameters: expressed in transfected cells; host or cells: CHO cells stably transfected with GPR40 and aequorin; conditions: inositol phosphate assay, A9_GPR40 cells, 1 hour; read-out: IP3 EC50
How it was run: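 [^3H] inositol phosphate accumulation was measured by SPA after 1 h compound exposure at 37° C in HBSS/10 mM LiCl containing HSA, ending with a 20 mM formic acid quench. The GPR40-transfected A9 cells had first been labelled overnight (16 h) with 1 μCi/mL ^3H-inositol.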

T1 sequence (O14842 whole entry): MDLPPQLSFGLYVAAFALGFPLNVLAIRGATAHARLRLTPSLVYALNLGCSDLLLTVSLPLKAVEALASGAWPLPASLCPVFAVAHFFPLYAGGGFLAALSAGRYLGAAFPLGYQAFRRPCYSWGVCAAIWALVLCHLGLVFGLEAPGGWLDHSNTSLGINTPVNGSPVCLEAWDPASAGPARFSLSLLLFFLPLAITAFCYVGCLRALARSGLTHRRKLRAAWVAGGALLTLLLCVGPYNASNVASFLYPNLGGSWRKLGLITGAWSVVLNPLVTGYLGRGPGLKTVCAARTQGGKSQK

Structure (SMILES)	EC50 (GPR40 [1])	EC50 (GPR40 [2])
COc1ccc(F)c(-c2cc(F)c(COc3cccc([C@@H](CC(=O)O)C4CC4)c3)cc2C2=CCCC2(C)C)c1 (single isomer, unassigned) [Example 66.43, (3S)-3-Cyclopropyl-3-(3-(((2-(5,5-dimethyl-1-cyclopenten-1-yl)-2′,5-difluoro-5′-(methyloxy)-1,1′-biphenyl-4-yl)methyl)oxy)phenyl)propanoic acid or (3R)-3-cyclopropyl-3-(3-(((2-(5,5-dimethyl-1-cyclopenten-1-yl)-2′,5-difluoro-5′-(methyloxy)-1,1′-biphenyl-4-yl)methyl)oxy)phenyl)propanoic acid]	100 to 1000 nM	< 10 nM
COc1ccc(F)c(-c2cc(F)c(COc3cccc([C@@H](CC(=O)O)C4CC4)c3)cc2[C@H]2CCCC2(C)C)c1 (single isomer, unassigned) [Example 66.44]	10 to 100 nM	< 10 nM
COc1ccc(F)c(-c2c(F)cc(COc3cccc([C@@H](CC(=O)O)C4CC4)c3)cc2C2=CCCC2(C)C)c1 (single isomer, unassigned) [Example 66.49, (3S)-3-Cyclopropyl-3-(3-(((2-(5,5-dimethyl-1-cyclopenten-1-yl)-2′,6-difluoro-5′-(methyloxy)-1,1′-biphenyl-4-yl)methyl)oxy)phenyl)propanoic acid or (3R)-3-cyclopropyl-3-(3-(((2-(5,5-dimethyl-1-cyclopenten-1-yl)-2′,6-difluoro-5′-(methyloxy)-1,1′-biphenyl-4-yl)methyl)oxy)phenyl)propanoic acid]	100 to 1000 nM	10 to 100 nM
CC1(C)CCC=C1c1cc(COc2cccc([C@@H](CC(=O)O)C3CC3)c2)ccc1-c1cc(C(F)F)ccc1F (single isomer, unassigned) [Example 66.50, (3S)-3-Cyclopropyl-3-(3-(((5′-(difluoromethyl)-2-(5,5-dimethyl-1-cyclopenten-1-yl)-2′-fluoro-1,1′-biphenyl-4-yl)methyl)oxy)phenyl)propanoic acid or (3R)-3-cyclopropyl-3-(3-(((5′-(difluoromethyl)-2-(5,5-dimethyl-1-cyclopenten-1-yl)-2′-fluoro-1,1′-biphenyl-4-yl)methyl)oxy)phenyl)propanoic acid]	100 to 1000 nM	100 to 1000 nM
CC1(C)CCC[C@@H]1c1cc(COc2cccc([C@@H](CC(=O)O)C3CC3)c2)ccc1-c1cc(C(F)F)ccc1F (single isomer, unassigned) [Example 66.51]	100 to 1000 nM	10 to 100 nM
COc1ccc(F)c(-c2ccc(COc3cccc([C@@H](CC(=O)O)C4CC4)c3)cc2[C@H]2OCCCC2(C)C)c1 (single isomer, unassigned) [Example 66.54]	100 to 1000 nM	10 to 100 nM
COc1ccc(F)c(-c2ccc(COc3cccc([C@@H](CC(=O)O)C4CC4)c3)cc2[C@H]2CCC[C@@H]2C)c1 (single isomer, unassigned) [Example 66.56]	100 to 1000 nM	10 to 100 nM
CCC(C)(C)[C@H](OC)c1cc(COc2cccc([C@@H](CC(=O)O)C3CC3)c2)ccc1-c1cc(OC)ccc1F (single isomer, unassigned) [Example 66.62]	10 to 100 nM	< 10 nM
COc1ccc(F)c(-c2ccc(COc3cccc([C@@H](CC(=O)O)C4CC4)c3)cc2COC(C)(C)C)c1 (single isomer, unassigned) [Example 66.63, (3S)-3-Cyclopropyl-3-(3-(((2-(((1,1-dimethylethyl)oxy)methyl)-2′-fluoro-5′-(methyloxy)-1,1′-biphenyl-4-yl)methyl)oxy)phenyl)propanoic acid or (3R)-3-cyclopropyl-3-(3-(((2-(((1,1-dimethylethyl)oxy)methyl)-2′-fluoro-5′-(methyloxy)-1,1′-biphenyl-4-yl)methyl)oxy)phenyl)propanoic acid]	1000 to 10000 nM	1000 to 10000 nM
COc1cc(-c2ccc(COc3cccc(C(CC(=O)O)C4CC4)c3)cc2C2=CCCC2(C)C)ccn1 (single isomer, unassigned) [Example 66.66, (3S)-3-(3-(3-(5,5-Dimethylcyclopent-1-enyl)-4-(2-methoxypyridin-4-yl)benzyloxy)phenyl)-3-cyclopropylpropanoic acid or (3R)-3-(3-(3-(5,5-dimethylcyclopent-1-enyl)-4-(2-methoxypyridin-4-yl)benzyloxy)phenyl)-3-cyclopropylpropanoic acid]	100 to 1000 nM	10 to 100 nM
C=CC1(c2cc(COc3cccc([C@@H](CC(=O)O)C4CC4)c3)ccc2-c2cc(OC)ncc2F)CCCC1 (single isomer, unassigned) [Example 66.67, (3S)-3-(3-(4-(5-Fluoro-2-methoxypyridin-4-yl)-3-(1-vinylcyclopentyl)benzyloxy)phenyl)-3-cyclopropylpropanoic acid or (3R)-3-(3-(4-(5-fluoro-2-methoxypyridin-4-yl)-3-(1-vinylcyclopentyl)benzyloxy)phenyl)-3-cyclopropylpropanoic acid]	100 to 1000 nM	10 to 100 nM
COc1ccc(F)c(-c2ccc(COc3cccc([C@@H](CC(=O)O)C4CC4)c3)cc2C2=CCCC2)c1 (single isomer, unassigned) [Example 66.68, (S)-3-[3-(2-Cyclopent-1-enyl-2′-fluoro-5′-methoxy-biphenyl-4-ylmethoxy)-phenyl]-3-cyclopropyl-propionic acid or (R)-3-[3-(2-cyclopent-1-enyl-2′-fluoro-5′-methoxy-biphenyl-4-ylmethoxy)-phenyl]-3-cyclopropyl-propionic acid]	100 to 1000 nM	10 to 100 nM
COc1ccc(F)c(-c2ccc(COc3cccc([C@@H](CC(=O)O)C4CC4)c3)cc2CN2[C@H](C)CCC[C@H]2C)c1 (single isomer, unassigned) [Example 66.69]	100 to 1000 nM	10 to 100 nM
COc1ccc(F)c(-c2ccc(COc3cccc(C(CC(=O)O)C4CC4)c3)cc2CN2C(C)CCCC2C)c1 (single isomer, unassigned) [Example 66.70]	100 to 1000 nM	10 to 100 nM
COc1ccc(F)c(-c2ccc(COc3cccc([C@@H](CC(=O)O)C4CC4)c3)cc2CN2[C@H](C)CC[C@H]2C)c1 (single isomer, unassigned) [Example 66.71, (3S)-3-Cyclopropyl-3-(3-(((2-(((2R,5R)-2,5-dimethyl-1-pyrrolidinyl)methyl)-2′-fluoro-5′-(methyloxy)-1,1′-biphenyl-4-yl)methyl)oxy)phenyl)propanoic acid or (3R)-3-cyclopropyl-3-(3-(((2-(((2R,5R)-2,5-dimethyl-1-pyrrolidinyl)methyl)-2′-fluoro-5′-(methyloxy)-1,1′-biphenyl-4-yl)methyl)oxy)phenyl)propanoic acid]	100 to 1000 nM	100 to 1000 nM
COc1cc(-c2cc(F)c(COc3cccc([C@@H](CC(=O)O)C4CC4)c3)cc2[C@H]2CCCC2(C)C)c(F)cn1 (single isomer, unassigned) [Example 66.77]	10 to 100 nM	< 10 nM
CCCC(CC(=O)O)c1cccc(OCc2ccc(-c3cc(OC)ccc3F)c(OC3CCCCCC3)c2)c1 (single isomer, unassigned) [Example 67.2, (3R)-3-(3-(((2-(Cycloheptyloxy)-2′-fluoro-5′-(methyloxy)-1,1′-biphenyl-4-yl)methyl)oxy)phenyl)hexanoic acid or (3S)-3-(3-(((2-(cycloheptyloxy)-2′-fluoro-5′-(methyloxy)-1,1′-biphenyl-4-yl)methyl)oxy)phenyl)hexanoic acid]	100 to 1000 nM	100 to 1000 nM
